Legend:
ZW658 strain [1] = test: Flask fermentation of ZW658 on glucose and xylose with various polyols; type: cell-based, Zymomonas mobilis; conditions: 10 mM polyol
Method: (§1) Approximately 1 ml of well mixed sample was obtained from flask or fermentor. First the sample absorbance was measured directly with a spectrophotometer (Amersham Biosciences Ultrospec 3300pro, GE Healthcare, Piscataway, N.J., USA). If the reading was lower than 0.6 unit, no dilution was needed. If the reading was higher than 0.6 unit, the sample was diluted with culture medium until the actual reading was in the range of 0.1 to 0.6 unit. The original OD was calculated from the dilution ratio and the actual reading.
(§2) The analysis of sugars, acetate, ethanol, and other by-products was done with an Agilent 1100 series HPLC and Agilent ChemStation software for LC 3D. The column was BioRad Aminex HPX-87H(HPLC Organic Analysis Column 125-0140) with BioRad Micro-Guard Cartridge Cation-H (125-0129). The operating conditions were:
(§3) Glycerol stock of seed frozen at −80° C. was thawed, then inoculated into sterile culture tubes with mixture of 60 g/L glucose, 20 g/L xylose, 10 g/L yeast extract (YE), 10 g/L KH2PO4, 2 g/L (NH4)2SO4, and 1 g/L MgSO4. Initial pH was adjusted to 5.5 with 4 N KOH. This revival culture was grown statically overnight at 37° C. It was transferred into shake flasks with 75 g/L glucose, 25 g/L xylose, 10 g/L yeast extract (YE), 10 g/L KH2PO4, 2 g/L (NH4)2SO4, and 1 g/L MgSO4. Initial pH was adjusted to 5.5 with 4 N KOH. Growth was monitored by measuring OD600. When the OD reached approximately 5, a certain volume of the seed was withdrawn into a sterile syringe for inoculation.
In five sterilized 125 ml Erlenmeyer culture flasks (Cat. No. 30180-036, VWR International, USA), 10 ml of ZW658 strain seed culture at OD600 of approximately 5 was inoculated into each flask with 100 ml of aqueous solution containing 100 g/L glucose, 80 g/L xylose, 10 g/L yeast extract (YE), 2 g/L KH2PO4, 1 g/L MgSO4.7H2O, and 4 g/L KHCO3, and 10 mM of one of the following polyols: erythritol, sorbitol, mannitol, maltitol, or lactitol. After inoculation, the total sugar concentration was about 160 g/L due to dilution by the seed culture. Initial pH was adjusted to 5.5 with 4 N H3PO4 solution. Mixing speed was set at 150 rpm. Fermentation was conducted at 33° C. and pH was not controlled. Samples were taken periodically. Samples were filtered through 0.22 micron filters, and the filtrates were analyzed by HPLC as described in General Methods for compounds including glucose, xylose, ethanol, xylitol, and acetic acid. Samples were diluted with medium (as described in General Methods) and the OD600 was measured to monitor cell growth. […] Cultures with sorbitol or mannitol grew faster and better. After 32 hours, the OD600 were 13.94 and 13.92, respectively, for cultures supplemented with sorbitol or mannitol; meanwhile, the OD600 were 9.48, 9.02, and 9.24, respectively, for cultures supplemented with erythritol, maltitol, or lactitol. […] The presence of sorbitol or mannitol allowed more xylose utilization, without production of xylitol.

ZW658 strain [2] = test: 1-liter fermentor, ZW658 on high concentration glucose and xylose with sorbitol or glutamate; type: cell-based, Zymomonas mobilis
Method: as §1, §2, §3
In a sterilized 1-liter fermentor (BIOSTAT® B-DCU system, Sartorius BBI System Inc., Bethlehem, Pa., USA), 50 ml of ZW658 strain seed culture at Optical Density of approximately 5 (measured at 600 nm) was inoculated into 450 ml of aqueous solution containing sugars and medium. The final mixed broth contained 100 g/L glucose, 85.1 g/L xylose, 10 g/L yeast extract (YE), 2 g/L KH2PO4, and 10 mM sorbitol. pH was adjusted to 5.5 with 4 N KOH solution. Mixing speed was set at 150 rpm. Fermentation was conducted at 33° C. and pH 5.5. Samples were taken periodically. Samples were filtered through 0.22 micron filters, and the filtrates were analyzed by HPLC as described in General Methods for compounds including glucose, xylose, ethanol, and acetate. Samples were also diluted with medium (as described in General Methods) and the OD600 was measured to monitor cell growth. […] The by-product xylitol concentration was 0.67 g/L at 29 hr, and increased to 0.95 g/L at 64 hr.
In a sterilized 1-liter fermentor (BIOSTAT® B-DCU system, Sartorius BBI System Inc., Bethlehem, Pa., USA), 50 ml of ZW658 strain seed culture at OD600 of approximately 5 was inoculated into 450 ml of aqueous solution containing sugars and medium. The final mixed broth contained 98.0 g/L glucose, 81.2 g/L xylose, 10 g/L yeast extract (YE), 2 g/L KH2PO4, and 10 mM potassium glutamate. pH was adjusted to 5.5 with 4 N KOH solution. Mixing speed was set at 150 rpm. Fermentation was conducted at 33° C. and pH 5.5. Samples were taken periodically. Samples were filtered through 0.22 micron filters, and the filtrates were analyzed by HPLC as described in General Methods for compounds including glucose, xylose, xylitol, ethanol, and acetic acid. Samples were also diluted with medium (as described in General Methods) and the OD600 was measured to monitor cell growth. […] However, xylose was not well-utilized, cell growth and ethanol production were reduced as compared to that in the presence of sorbitol (Example 4), and xylitol production increased.

[3] = after 29 hours, 100 g/L glucose, 85.1 g/L xylose, 10 mM sorbitol, 33° C., pH 5.5

## OC[C@@H](O)[C@@H](O)[C@H](O)[C@@H](O)CO [sorbitol]
ZW658 strain [1]; mixed sugars
  ethanol production: ethanol production was also better
  xylose utilization: More xylose was utilized
ZW658 strain [1]; after 32 hours, total sugar about 160 g/L, 33° C.
  OD600: 13.94
ZW658 strain [2]; 100 g/L glucose, 85.1 g/L xylose, 10 mM sorbitol, 33° C., pH 5.5
  OD600 cells grew to: 13
ZW658 strain [2]; Examples 4 and 5, with vs without sorbitol
  reduction of xylitol with addition of sorbitol: about 3 fold
ZW658 strain [2]; [3]
  ethanol concentration: 83.9 g/L
  glucose concentration: 0 g/L
  xylose concentration: 2.08 g/L
ZW658 strain [2]; at 29 hr, 10 mM sorbitol
  by-product xylitol concentration: 0.67 g/L
ZW658 strain [2]; at 64 hr, 10 mM sorbitol
  by-product xylitol concentration: 0.95 g/L
ZW658 strain [2]; sugars mixture with 100 g/L glucose, no acetate, in the presence of sorbitol
  time to complete utilization of 85 g/L xylose: ≤ 30 h
ZW658 strain [2]; with vs without 10 mM sorbitol
  effect on growth: doubled the growth
  effect on lag time: significantly reduced the lag time

From patent publication US7629156B2, “Ethanol production in fermentation of mixed sugars containing xylose” (E.I. du Pont de Nemours and Company, priority 2006, dated 2009)
